From patent publication US20220162200A1, “PKM2 MODULATORS AND METHODS FOR THEIR USE” (Sumitomo Dainippon Pharma Oncology, Inc., priority 2019, published 2022)

Assays:
PKM2 = PKM2 (Homo sapiens, UniProt P14618); test: PKM2 activation assay (ATP formation measured by Kinase Glo); assay type: biochemical; conditions: 2 nM PKM2, 30 min pre-incubation, 75 μM ADP, 15 μM PEP, ATP formation after 30 min
Procedure: Compounds were pre-incubated with 2 nM PKM2 in reaction buffer (50 mM Tris-HCl, pH 8.0, 200 mM KCl, 30 mM MgCl2, 2 mM Dithiothreitol (DTT), 5% Dimethyl sulfoxide (DMSO)) for 30 min at ambient temperature. Adenosine diphosphate (ADP) and Phosphoenolpyruvic acid (PEP) were then added to final concentrations of 75 μM and 15 μM, respectively. After 30 min, Adenosine triphosphate (ATP) formation was measured by Kinase Glo (Promega, Madison, Wis.), and AC50 values were determined using Prism (GraphPad Software, Inc., La Jolla, Calif.).

A549 cells = test: A549 cell viability by ATPlite assay; assay type: cell-based; conditions: Homo sapiens, A549 cells in BME media lacking nonessential amino acids + 5% dialyzed serum, 72 hours
Procedure: A549 cells were seeded at 5000 cells per well (in 96-well plate) in Basal Medium Eagle (BME) media lacking nonessential amino acids+5% dialyzed serum. After 18 hours, a negative control (i.e., DMSO only) or a representative compound in 0.1% final concentration DMSO was added. After 72 hours, cell viability was determined by ATPlite assay and EC50 values were determined using Prism GraphPad Software (La Jolla, Calif.).

PKM2, sequence (P14618 whole entry): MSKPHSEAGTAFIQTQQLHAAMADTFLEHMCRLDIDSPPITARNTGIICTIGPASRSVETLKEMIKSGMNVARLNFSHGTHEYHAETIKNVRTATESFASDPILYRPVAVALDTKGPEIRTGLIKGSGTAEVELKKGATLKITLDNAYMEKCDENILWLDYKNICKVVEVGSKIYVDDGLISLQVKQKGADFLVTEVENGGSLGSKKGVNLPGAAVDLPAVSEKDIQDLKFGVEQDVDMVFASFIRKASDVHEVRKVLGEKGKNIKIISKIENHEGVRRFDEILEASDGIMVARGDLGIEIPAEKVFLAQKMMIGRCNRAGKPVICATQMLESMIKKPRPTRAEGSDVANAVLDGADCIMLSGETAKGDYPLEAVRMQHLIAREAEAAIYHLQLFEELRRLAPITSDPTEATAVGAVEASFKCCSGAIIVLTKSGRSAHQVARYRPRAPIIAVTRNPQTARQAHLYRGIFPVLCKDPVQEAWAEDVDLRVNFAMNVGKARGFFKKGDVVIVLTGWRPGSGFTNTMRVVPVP

SMILES | AC50 (PKM2) | EC50 (A549 cells)
O=C(c1cc(C(F)(F)F)n[nH]1)N(CCC1CCS(=O)(=O)CC1)Cc1c(F)cccc1Cl [Compound Ij, N-(2-chloro-6-fluorobenzyl)-N-(2-(1,1-dioxidotetrahydro-2H-thiopyran-4-yl)ethyl)-3-(trifluoromethyl)-1H-pyrazole-5-carboxamide] | > 50 nM | –
NCc1ccc(F)c(CN(CCC2CCS(=O)(=O)CC2)C(=O)c2cc(C(F)(F)F)n[nH]2)c1 [Compound If, N-(2-(1,1-dioxidotetrahydro-2H-thiopyran-4-yl)ethyl)-N-(2-fluoro-5-aminomethylbenzyl)-3-(trifluoromethyl)-1H-pyrazole-5-carboxamide] | 15 to 50 nM | > 100 nM
O=C(c1cc(C(F)(F)F)n[nH]1)N(CCC1CCS(=O)(=O)CC1)Cc1c(F)ccc2cn[nH]c12 [Compound Ig, N-(2-(1,1-dioxidotetrahydro-2H-thiopyran-4-yl)ethyl)-N-((6-fluoro-1H-indazol-7-yl)methyl)-3-(trifluoromethyl)-1H-pyrazole-5-carboxamide] | 15 to 50 nM | > 100 nM
Nc1cccc(Br)c1CN(CCC1CCS(=O)(=O)CC1)C(=O)c1cc(C(F)(F)F)n[nH]1 [Compound Ih, N-(2-amino-6-bromobenzyl)-N-(2-(1,1-dioxidotetrahydro-2H-thiopyran-4-yl)ethyl)-3-(trifluoromethyl)-1H-pyrazole-5-carboxamide] | > 50 nM | –
O=C(c1cc(C(F)(F)F)n[nH]1)N(CCC1CCS(=O)(=O)CC1)Cc1c(F)cccc1Br [Compound Ib, N-(2-bromo-6-fluorobenzyl)-N-(2-(1,1-dioxidotetrahydro-2H-thiopyran-4-yl)ethyl)-3-(trifluoromethyl)-1H-pyrazole-5-carboxamide] | 15 to 50 nM | > 100 nM
Nc1ccccc1CN(CCC1CCS(=O)(=O)CC1)C(=O)c1cc(C(F)(F)F)n[nH]1 [Compound Ii, N-(2-aminobenzyl)-N-(2-(1,1-dioxidotetrahydro-2H-thiopyran-4-yl)ethyl)-3-(trifluoromethyl)-1H-pyrazole-5-carboxamide] | > 50 nM | 50 to 100 nM
O=C(c1cc(C(F)(F)F)n[nH]1)N(CCC1CCS(=O)(=O)CC1)Cc1c(F)ccc2c(Cl)c[nH]c12 [Compound Ie, N-(2-(1,1-dioxidotetrahydro-2H-thiopyran-4-yl)ethyl)-N-((3-chloro-6-fluoro-1H-indol-7-yl)methyl)-3-(trifluoromethyl)-1H-pyrazole-5-carboxamide] | < 15 nM | –
Nc1cccc(Cl)c1CN(CCC1CCS(=O)(=O)CC1)C(=O)c1cc(C(F)(F)F)n[nH]1 [Compound Ia, N-(2-amino-6-chlorobenzyl)-N-(2-(1,1-dioxidotetrahydro-2H-thiopyran-4-yl)ethyl)-3-(trifluoromethyl)-1H-pyrazole-5-carboxamide] | < 15 nM | –
Cc1ccc(F)c(CN(CCC2CCS(=O)(=O)CC2)C(=O)c2cc(C(F)(F)F)n[nH]2)c1 [Compound Ic, N-(2-(1,1-dioxidotetrahydro-2H-thiopyran-4-yl)ethyl)-N-(2-fluoro-5-methylbenzyl)-3-(trifluoromethyl)-1H-pyrazole-5-carboxamide] | 15 to 50 nM | 50 to 100 nM
O=C(c1cc(C(F)(F)F)n[nH]1)N(CCC1CCS(=O)(=O)CC1)Cc1c(F)ccc2cc[nH]c12 [Compound Id, N-(2-(1,1-dioxidotetrahydro-2H-thiopyran-4-yl)ethyl)-N-((6-fluoro-1H-indol-7-yl)methyl)-3-(trifluoromethyl)-1H-pyrazole-5-carboxamide] | < 15 nM | –
